Test results published in US6897306B2, “3-heterocyclylpropanohydroxamic acids” (Pfizer Products, Inc., priority 1999, dated 2005).

What was measured:
[1] = system: keratinocyte migration (MMP-1 dependent); conditions: collagen type I matrix in vitro; cited from earlier work

Row | SMILES | inhibition of keratinocyte migration [1] | melting point
1 | CNC(=O)[C@H](Cc1ccc(OC)cc1)NC(=O)[C@@H](CC(=O)NO)CC(C)C [SC44463] | completely inhibited | –
2 | O=C(C[C@@H](CCCC1CCCCC1)c1nc(C(=O)NCc2ccccn2)no1)NO [Example 10, 5-{(1R)-4-Cyclohexyl-1-[2-(hydroxyamino)-2-oxoethyl]butyl}-N-(2-pyridinylmethyl) -1,2,4-oxadiazole-3-carboxamide] | – | 128 to 130 °C
